This passage reports IC50 results from patent US20250361230A1, “LATS Inhibitors and Uses Thereof” (The USA, as Represented by the Secretary, Dept. of Heath …, priority 2022, published 2025).

This test concerns the target T1, LATS1 Kinase-NanoLuc fusion in HEK-293 cells (Homo sapiens, UniProt O95835).
T1 construct: host or cells: HEK-293
T1 sequence (O95835 1-1130): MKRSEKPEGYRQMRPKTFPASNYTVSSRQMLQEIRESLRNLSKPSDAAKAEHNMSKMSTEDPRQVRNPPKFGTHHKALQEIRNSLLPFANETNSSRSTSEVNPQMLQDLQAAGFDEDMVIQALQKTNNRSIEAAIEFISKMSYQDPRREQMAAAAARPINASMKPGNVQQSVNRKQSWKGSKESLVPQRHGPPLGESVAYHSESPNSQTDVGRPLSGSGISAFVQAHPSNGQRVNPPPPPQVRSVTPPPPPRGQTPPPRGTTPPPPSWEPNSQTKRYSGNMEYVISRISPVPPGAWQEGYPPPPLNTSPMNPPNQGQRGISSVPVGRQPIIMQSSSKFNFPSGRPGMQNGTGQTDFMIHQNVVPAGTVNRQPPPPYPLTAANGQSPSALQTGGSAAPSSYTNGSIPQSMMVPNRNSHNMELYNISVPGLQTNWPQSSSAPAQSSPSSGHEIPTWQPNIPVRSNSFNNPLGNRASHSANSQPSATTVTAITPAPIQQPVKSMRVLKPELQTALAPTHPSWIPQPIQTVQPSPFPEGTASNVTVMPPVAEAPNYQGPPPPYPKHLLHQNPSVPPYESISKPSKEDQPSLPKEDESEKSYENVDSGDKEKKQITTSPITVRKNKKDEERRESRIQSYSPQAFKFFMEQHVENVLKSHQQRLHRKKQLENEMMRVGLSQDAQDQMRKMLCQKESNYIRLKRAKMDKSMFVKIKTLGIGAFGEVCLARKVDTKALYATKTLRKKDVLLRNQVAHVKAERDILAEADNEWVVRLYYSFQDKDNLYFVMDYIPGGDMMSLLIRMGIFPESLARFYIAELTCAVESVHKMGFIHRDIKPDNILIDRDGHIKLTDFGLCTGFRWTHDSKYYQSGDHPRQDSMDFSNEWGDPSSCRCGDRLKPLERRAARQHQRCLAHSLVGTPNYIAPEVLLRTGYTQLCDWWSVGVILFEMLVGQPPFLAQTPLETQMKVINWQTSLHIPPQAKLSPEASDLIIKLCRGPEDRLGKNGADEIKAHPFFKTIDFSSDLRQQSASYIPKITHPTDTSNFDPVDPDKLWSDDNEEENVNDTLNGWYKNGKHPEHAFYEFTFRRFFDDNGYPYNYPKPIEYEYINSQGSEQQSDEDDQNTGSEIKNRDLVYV
The test can be described thus: NanoBRET target engagement assay in transfected HEK-293 cells, LATS1. The class given is cell-based. To be noted: Table 28, NanoBRET, HEK-293 cells; read-out: LATS1 (Cellular) IC50. The source says: The NanoBRET™ assay measures kinase engagement in real time in the context of the intact cell. The assay uses a Kinase-NanoLuc® fusion vector expressing a kinase protein to which a luciferase tag has been added, a cell-permeant fluorescent NanoBRET™ tracer, a NanoLuc® substrate, and an extracellular NanoLuc® inhibitor. Upon expression of the luciferase-tagged kinase, cells will produce a strong BRET signal only in the presence of the NanoBRET™ tracer. The extracellular NanoLuc® inhibitor ensures that the BRET signal observed emanates only from live cells. Because the BRET signal has tight distance constraints, addition of the test compound will decrease the BRET signal if the compound competes with the NanoBRET™ tracer for binding to the kinase domain. Under the appropriate tracer conditions established by the manufacturer, quantitative intracellular affinity and relative potency can then be determined using Mass Action model equations.
HEK-293 cells were purchased from ATCC. FuGENEHD Transfection Reagent, Kinase-NanoLuc® fusion plasmids, Transfection Carrier DNA, NanoBRET™ Tracers and dilution buffer, NanoBRET™ Nano-Glo Substrate, Extracellular NanoLuc® Inhibitor were obtained from Promega.
Assays were conducted following Promega assay protocol with some modifications as described further below. HEK-293 Cells were transiently transfected with Kinase-NanoLuc® Fusion Vector DNA by FuGENE HD Transfection Reagent. Test compounds were delivered into 384 well assay plate by Echo 550 (Labcyte Inc, Sunnyvale, CA). Transfected cells were harvested and mixed with NanoBRET™ Tracer Reagent and dispensed into 384 well plates and incubated at 37° C. in 5% CO2 cell culture incubator for 1 hour. The NanoBRET™ Nano-Glo Substrate plus Extracellular NanoLuc® Inhibitor Solution were added into the wells of the assay plate and incubated for 2-3 minutes at room temperature. The donor emission wavelength (460 nm) and acceptor emission wavelength (600 nm) were measured in the EnVision plate reader. The BRET Ratios were calculated. BRET Ratio=[(Acceptor sample÷Donor sample)−(Acceptor no-tracer control÷Donor no-tracer control)]. The IC50 values of compounds were calculated with Prism GraphPad program.
• 1. Transient Transfection of HEK-293 Cells NanoLuc® Fusion Vector DNA • 1). Cultivate HEK-293 cells (70-80% confluence) appropriately prior to assay. Trypsinize and collect HEK-293 cells. • 2). Prepare lipid: DNA complexes as follows: • a. Prepare a […] solution of DNA in Opti-MEM™ without serum that consists of the following ratios of carrier DNA and DNA encoding NanoLuc® fusion. 9.0 µg/mL of Transfection Carrier DNA, […] of NanoLuc® fusion vector DNA and 1 mL of Opti-MEM™ without phenol red. Mix thoroughly. • b. Add 30 μl of FuGENE HD Transfection Reagent into each milliliter of DNA mixture to form lipid: DNA complex. • c. Mix by inversion 10 times. • d. Incubate at ambient temperature for 20 minutes to allow complexes to form. • 3). In a sterile, conical tube, mix 1 part of lipid: DNA complex with 20 parts of HEK-293 cells in suspension. Mix gently by inversion 5 times. • 4). Dispense cells+lipid: DNA complex into a sterile tissue culture dish and incubate for 22-24 hours. • 2. Addition of Test Compounds (dry plate shooting): Each test compound is delivered from the compound source plate to the wells of 384-well white NBS plate by Echo 550. • 3. Preparation of Cells with NanoBRET™ Tracer Reagent • 1). Remove medium from dish with transfected HEK-293 cells via aspiration, trypsinize and allow cells to dissociate from the dish. • 2). Neutralize trypsin using medium containing serum and centrifuge at 200× g for 5 minutes to pellet the cells. Adjust the cell density to 2×10^5 cells/mL in Opti-MEM™ without phenol red. • 3). Prepare Complete 20× NanoBRET™ Tracer Reagent with Tracer Dilution Buffer. • 4). Dispense one part of Complete 20× NanoBRET™ Tracer Reagent to 20 parts of cells in the tube. Mix gently by inversion 10 times. • 5). […]
Background: BRET reads energy transfer from a luciferase to a nearby fluorophore.
With `Cc1cc(-c2ccnc3[nH]cc(F)c23)ccc1CN` [Compound 211, (4-(3-fluoro-1H-pyrrolo[2,3-b]pyridin-4-yl)-2-methylphenyl) methanamine], the IC50 worked out at 6.37 µM.

For the molecule `NCc1ccc(-c2ccnc3[nH]cc(-c4ccccc4)c23)cc1-c1ccccc1` [Compound 219, (5-(3-phenyl-1H-pyrrolo[2,3-b]pyridin-4-yl)-[1,1′-biphenyl]-2-yl)methanamine], the concentration for half-maximal inhibition (IC50) was 0.653 µM.

As to `COC(=O)c1c[nH]c2nccc(-c3ccc(CN)cc3)c12` [Compound 223, methyl 4-(4-(aminomethyl)phenyl)-1H-pyrrolo[2,3-b]pyridine-3-carboxylate], the concentration for half-maximal inhibition (IC50) is 66.8 µM.

Regarding `Cc1cccc(-c2c[nH]c3nccc(-c4ccc(CN)cc4)c23)c1` [Compound 230, (4-(3-(m-tolyl)-1H-pyrrolo[2,3-b]pyridin-4-yl)phenyl) methanamine], the IC50 amounted to 5.47 µM.

For `CC(C)(N)c1ccc(-c2ccnc3[nH]cc(F)c23)cc1` [Compound 238, 2-(4-(3-fluoro-1H-pyrrolo[2,3-b]pyridin-4-yl)phenyl)propan-2-amine], the half-maximal inhibitory concentration (IC50) turned out to be 1.56 µM.

For `NCc1ccc(-c2ccnc3[nH]cc(-c4cccnc4)c23)cc1` [Compound 245, (4-(3-(pyridin-3-yl)-1H-pyrrolo[2,3-b]pyridin-4-yl)phenyl) methanamine], the IC50 turned out to be 11.9 µM.

As to `NCc1ccc(-c2ccnc3[nH]cc(-c4ccccc4)c23)cc1` [Compound 253, (4-(3-phenyl-1H-pyrrolo[2,3-b]pyridin-4-yl)phenyl) methanamine], the concentration for half-maximal inhibition (IC50) came to 2.98 µM.

Turning to `Cc1cc(-c2ccnc3[nH]cc(Cl)c23)ccc1CN` [Compound 254, (4-(3-chloro-1H-pyrrolo[2,3-b]pyridin-4-yl)-2-methylphenyl) methanamine], the concentration for half-maximal inhibition (IC50) worked out at 0.714 µM.

Regarding `Cc1cc(-c2ccnc3[nH]ccc23)ccc1CN` [Compound 266, (2-methyl-4-(1H-pyrrolo[2,3-b]pyridin-4-yl)phenyl) methanamine], the IC50 turned out to be 6.71 µM.

For `c1cc(-c2ccc3c(c2)CCNC3)c2cc[nH]c2n1` [Compound 267, 6-(1H-pyrrolo[2,3-b]pyridin-4-yl)-1,2,3,4-tetrahydroiso-quinoline], the IC50 is over 50 µM.

In the case of `c1cc(-c2ccc(C3CCCCN3)cc2)c2cc[nH]c2n1` (stereo not drawn) [Compound 271, 4-(4-(piperidin-2-yl)phenyl)-1H-pyrrolo[2,3-b]pyridine], the IC50 was over 50 µM.

In the case of `NCc1ccc(-c2ccnc3[nH]cc(F)c23)cc1` [Compound 275, (4-(3-fluoro-1H-pyrrolo[2,3-b]pyridin-4-yl)phenyl) methanamine], the IC50 stood at 10.1 µM.

Consider `NCc1ccc(-c2ccnc3[nH]cc(Cl)c23)cc1` [Compound 276, (4-(3-chloro-1H-pyrrolo[2,3-b]pyridin-4-yl)phenyl) methanamine], for which the 50% inhibitory concentration (IC50) came to 2.83 µM.

For the molecule `NCc1ccc(-c2ccnc3[nH]ccc23)cc1C(F)(F)F` [Compound 284, (4-(1H-pyrrolo[2,3-b]pyridin-4-yl)-2-(trifluoromethyl)phenyl) methanamine], the IC50 is 34.8 µM.

Regarding `NCc1ccc(-c2ccnc3[nH]ccc23)cc1` [Compound 287, (4-(1H-pyrrolo[2,3-b]pyridin-4-yl)phenyl) methanamine], the IC50 amounted to 22.8 µM.

With `Cc1cc(-c2ccnc3[nH]cc(F)c23)cc(F)c1[C@@]1(O)[C@H](C)CN(C)C[C@@H]1C` [Compound 304, (3S,4s,5R)-4-(2-fluoro-4-(3-fluoro-1H-pyrrolo[2,3-b]pyridin-4-yl)-6-methylphenyl)-1,3,5-trimethylpiperidin-4-ol], the concentration for half-maximal inhibition (IC50) came to 0.0417 µM.

For the molecule `Cc1cc(-c2ccnc3[nH]cc(F)c23)cc(F)c1[C@@]1(O)[C@H](C)CN(C(C)C)C[C@@H]1C` [Compound 305, (3S,4s,5R)-4-(2-fluoro-4-(3-fluoro-1H-pyrrolo[2,3-b]pyridin-4-yl)-6-methylphenyl)-1-isopropyl-3,5-dimethylpiperidin-4-ol], the IC50 was found to be 0.0622 µM.

Take `COC(=O)c1c[nH]c2nccc(-c3cc(C)c([C@@]4(O)[C@H](C)CN(C5CCS(=O)(=O)CC5)C[C@@H]4C)c(F)c3)c12` [Compound 309, methyl 4-(4-((3S,4s,5R)-1-(1,1-dioxidotetrahydro-2H-thiopyran-4-yl)-4-hydroxy-3,5-dimethylpiperidin-4-yl)-3-fluoro-5-methylphenyl)-1H-pyrrolo[2,3-b]pyridine-3-carboxylate]: the 50% inhibitory concentration (IC50) worked out at 1.35 µM.

For the molecule `COC(=O)c1c[nH]c2nccc(-c3cc(C)c([C@@]4(O)[C@H](C)CN(C(=O)CN)C[C@@H]4C)c(F)c3)c12` [Compound 310, methyl 4-(3-fluoro-4-((3S,4s,5R)-1-glycyl-4-hydroxy-3,5-dimethylpiperidin-4-yl)-5-methylphenyl)-1H-pyrrolo[2,3-b]pyridine-3-carboxylate], the IC50 came to 4.59 µM.

Turning to `Cc1cc(-c2ccnc3[nH]cc(F)c23)cc(F)c1[C@@]1(O)[C@H](C)CN(C(=O)[C@H](N)CO)C[C@@H]1C` [Compound 312, (R)-2-amino-1-((3S,4R,5R)-4-(2-fluoro-4-(3-fluoro-1H-pyrrolo[2,3-b]pyridin-4-yl)-6-methylphenyl)-4-hydroxy-3,5-dimethylpiperidin-1-yl)-3-hydroxypropan-1-one], the IC50 is 0.0104 µM.

As for `Cc1cc(-c2ccnc3[nH]cc(F)c23)cc(F)c1[C@@]1(O)[C@H](C)CN(C(=O)[C@@H](CO)N(C)C)C[C@@H]1C` [Compound 313, (R)-2-(dimethylamino)-1-((3S,4S,5R)-4-(2-fluoro-4-(3-fluoro-1H-pyrrolo[2,3-b]pyridin-4-yl)-6-methylphenyl)-4-hydroxy-3,5-dimethylpiperidin-1-yl)-3-hydroxypropan-1-one], the half-maximal inhibitory concentration (IC50) is 0.043 µM.

One may read the IC50 as the point on the concentration scale where inhibition reaches its midpoint.
